Reference: patent publication US11090273B2, “Tagged poly(ester amide urethane)s, nanoparticles formed from same, and uses thereof” (Cornell University, priority 2016, dated 2021)

Columns and labels:
[1] = system: A549 cells; test: Mitochondrial membrane potential (ΔΨm) change, JC-1 flow cytometry; type: cell-based, human; conditions: 2 μg/mL GA equivalent (CCCP 50 μM), 24 h
[2] = system: HeLa cells; test: as above; type: cell-based; conditions: 2 μg/mL GA equivalent (CCCP 50 μM), 24 h
[3] = system: MCF-7 human breast cancer xenograft tumor; conditions: xenograft tumor at end of study
Experimental: In vivo xenograft Protocols Used. Female BALB/c nude mice, 8-weeks old, were obtained from the Laboratory Animal Services Centre, The Chinese University of Hong Kong. Mice were kept at room temperature 23±2° C. with an alternating 12-h light-dark cycle, and were allowed access to food and water ad libitum.
Before inoculation, 10 mg/kg Estradiol benzoate was given into mice through intraperitoneal (IP) injection with 2-day intervals. MCF-7 cells (4×10^6 cells per mouse) were suspended in PBS and inoculated subcutaneously into the left flank of each mouse, and tumor growth was monitored regularly. […] Equal volumes of saline were used as solvent for the free drug groups.
The therapy was continued six times at 2-day intervals through tail vein injection. Estradiol benzoate was also IP injected into mice at 2-day intervals during administration. The antitumor activity of the tested formulations was estimated by recording the changes in tumor mass. Tumor volumes were monitored by recording the tumor length and width with a caliper then calculated using the equation, V=0.5×a×b^2, where V is tumor volume (mm), a is tumor length (mm), and b is tumor width (mm). Mice were sacrificed on the 12th day after administration, and the tumors were weighed. […]

[4] = system: HCT116 cells; test: Cellular apoptosis by flow cytometry (Annexin V-FITC/PI); type: cell-based, human; conditions: HCT 116; 2 μg/mL GA or equal amount loaded; 24 h
Experimental: Apoptosis was assessed using staining with Annexin V-FITC/PI apoptosis detection kit (Affymetrix, CA) according to the manufacturer's instruction followed by flow cytometry analysis.

[5] = system: MMP-2 and MMP-9 activity of A549 cells; test: Gelatin zymography of MMP activity; type: cell-based, human; conditions: 0.6 μg/mL GA equivalent, serum-free media, 16 h

| SMILES | percentage of cell population with severe loss of ΔΨm [1] | percentage of cell population with severe loss of ΔΨm [2] | H&E staining: vacuoles in the tumor tissue [3] | percentage of dead cells [4] | percentage of healthy cells [4] | percentage of late apoptotic cells [4] | MMP band size and intensity / MMP activity (gelatin zymography) [5] |
| --- | --- | --- | --- | --- | --- | --- | --- |
| N#CC(C#N)=NNc1cccc(Cl)c1 [CCCP, carbonyl cyanide 3-chlorophenylhydrazone] | 89.7% | 60.0% | – | – | – | – | – |
| CC(C)=CCC[C@]1(C)C=Cc2c(O)c3c(c(CC=C(C)C)c2O1)O[C@]12C(=C[C@@H]4C[C@H]1C(C)(C)O[C@@]2(C/C=C(/C)C(=O)O)C4=O)C3=O [GA, Gambogic acid] | 60.1% | 29.7% | fewer vacuoles | 27.7% | 68.1% | 2.0% | reduced when comparing to the control sample |
